A short description of series [1]: Solubility determination in purified water at 25° C. The series is classed as physicochemical. Particulars: HPLC assay. The method, then: Excess of (R)-N-[5-methyl-8-(4-methylpiperazin-1-yl)-1,2,3,4-tetrahydro-2-naphthyl]- 4-morpholinobenzamide or it's corresponding salts was added to purified water. The solution was agitated overnight in a water bath, kept at 25° C. by using a thermostat (Julabo SW and U3, 60 strokes/min). The saturated solution was centrifuged and filtered through a 0.45 .quadrature.m Gelman GHP Acrodisc® 13 filter, diluted and assayed by HPLC.

Series [2] in a line: Solubility and release rate of the base (background statement). Conditions: base form. The series is classed as physicochemical.
Setting [3] is: water, salts, read-out: Solubility mg/mL (Solubility in Water at 25° C. for different salts).
Setting [4] is: rate is different in the stomach and the intestines.

≈ marks a conversion by molar mass, not a printed value. Read-outs that look alike come from different tables or passages of the source.

In the case of `Cc1ccc(N2CCN(C)CC2)c2c1CC[C@@H](NC(=O)c1ccc(N3CCOCC3)cc1)C2` [L-Ascorbate, (R)-N-[5-Methyl-8-(4-methylpiperazin-1-yl)-1,2,3,4-tetrahydro-2-naphthyl]-4-morpholinobenzamide L-Ascorbate], the “Solubility mg/mL (Solubility in Water at 25° C. for different salts)” value in series [1] (salts) came to 4.2 mg/mL.

With `Cc1ccc(N2CCN(C)CC2)c2c1CC[C@@H](NC(=O)c1ccc(N3CCOCC3)cc1)C2` [Salicylate, (R)-N-[5-Methyl-8-(4-methylpiperazin-1-yl)-1,2,3,4-tetrahydro-2-naphthyl]-4-morpholinobenzamide Salicylate], the “Solubility mg/mL (Solubility in Water at 25° C. for different salts)” value in series [1] (salts) is recorded as 0.29 mg/mL.

Take `Cc1ccc(N2CCN(C)CC2)c2c1CC[C@@H](NC(=O)c1ccc(N3CCOCC3)cc1)C2` [Base, (R)-N-[5-Methyl-8-(4-methylpiperazin-1-yl)-1,2,3,4-tetrahydro-2-naphthyl]-4-morpholinobenzamide]: the solubility in series [1] (water, base, read-out: Solubility in Water) stood at 0.034 mg/mL (≈ 75.8 µM).

`C[C@H](O)C(=O)O.Cc1ccc(N2CCN(C)CC2)c2c1CC[C@@H](NC(=O)c1ccc(N3CCOCC3)cc1)C2` [L-Lactate, (R)-N-[5-Methyl-8-(4-methylpiperazin-1-yl)-1,2,3,4-tetrahydro-2-naphthyl]-4-morpholinobenzamide L-Lactate]: the solubility in series [1] (salts, read-out: Solubility mg/mL (Solubility in Water at 25° C. for different salts)) was found to be 18.8 mg/mL.

With `Br.Br.Cc1ccc(N2CCN(C)CC2)c2c1CC[C@@H](NC(=O)c1ccc(N3CCOCC3)cc1)C2` [Dihydrobromide, (R)-N-[5-methyl-8-(4-methylpiperazin-1-yl)-1,2,3,4-tetrahydro-2-naphthyl]-4-morpholinobenzamide dihydrobromide], in series [1] (setting [3]), the solubility was 4.6 mg/mL.

For the compound `Cc1ccc(N2CCN(C)CC2)c2c1CC[C@@H](NC(=O)c1ccc(N3CCOCC3)cc1)C2.O=C(O)CO` [Glycolate, (R)-N-[5-Methyl-8-(4-methylpiperazin-1-yl)-1,2,3,4-tetrahydro-2-naphthyl]-4-morpholinobenzamide Glycolate], in series [1] (setting [3]), the solubility was more than 23.6 mg/mL.

In the case of `Cc1ccc(N2CCN(C)CC2)c2c1CCC(NC(=O)c1ccc(N3CCOCC3)cc1)C2` (racemic) [compound of formula I, N-[5-methyl-8-(4-methylpiperazin-1-yl)-1,2,3,4-tetrahydro-2-naphthyl]-4-morpholinobenzamide], in series [2] (setting [4]), the “pH dependence of release rate” value is listed as “pH dependent” and the release rate result is “slow”. The solubility in water entry in series [2] (result in words) is listed as “extremely low”.

Source of the values: patent US6291458A, “Morpholinobenzamide salts” (AstraZeneca AB, priority 1997, dated 2001).
